Source: patent USH1142H, “Optically active cyclobutyl pyrimidine” (priority 1990, dated 1993)

Experiments:
[1] = test system: HSV-1 (herpes simplex virus type 1, strain Schooler); assay: HSV-1 antiviral assay (plaque reduction in WI-38 cell culture monolayers); type: cell-based; conditions: Human alphaherpesvirus 1, 96 h; HSV-1 strain Schooler; WI-38 monolayers; 4 days incubation at 37° C.; at least a 50% plaque reduction compared to virus controls; read-out: ID50 (the source's name)
Experimental: (§1) Assays were performed in cell culture systems to determine the concentrations of compounds that are effective in […] several kinds of viral infections. The assays are described below, and the results are presented in Table 1. |HSV-1 (herpes simplex virus type 1, strain Schooler), VZV |Cell Culture Assays: |HSV-1 and VZV antiviral assays: Virus was adsorbed to |WI-38 cell culture monolayers in 6 well culture plates (Costar, |Cambridge, MA) for 1 hour prior to addition of maintenance |medium containing duplicate dilutions of the test compound. |Inhibition of plaque development was evaluated on fixed and |stained monolayers after 4 days incubation at 37° C. for HSV-1 |and after 6-7 days incubation at 37° C. for VZV. ID50 values |were determined from the drug concentration which conferred at |least a 50% plaque reduction compared to virus controls.

[2] = test system: VZV (varicella zoster virus, strain ELLEN); assay: VZV antiviral assay (plaque reduction in WI-38 cell culture monolayers); type: cell-based; conditions: Human alphaherpesvirus 3, WI-38 monolayers, 6-7 days incubation at 37° C., at least a 50% plaque reduction compared to virus controls, read-out: ID50 (the source's name)
Experimental: as §1, with “Schooler), VZV |(varicella zoster virus, strain ELLEN). |Cell Culture” for “Schooler), VZV |Cell Culture”

`O=c1[nH]c(=O)n([C@@H]2C[C@H](CO)[C@H]2CO)cc1/C=C/Br` [Compound 1, [1R-(1α(E),2β,3α)]-1-[2,3-bis(hydroxymethyl)cyclobutyl]-5-(2-bromoethenyl)-2,4(1H,3H)-pyrimidinedione] showed an IC50 [1] of 300 nM and an IC50 [2] of 60 to 150 nM.
